Data published in patent US20100324829A1, “METHOD OF SELECTING HLA-DP4 LIGANDS AND THE APPLICATIONS THEREOF” (priority 2001, published 2010).
Changes are numbered by the printed parent chain.

Tests used:
[1] = target: T1, HLA-DP4 molecule DPA1*0103/DPB1*0401 (DP401) (Homo sapiens, UniProt P04440+P20036); test: biochemical; type: binding
T1 construct: purified from various human B lymphocyte lines transformed with the Epstein Barr virus (EBV), which are homozygotes for DP; endogenous in cells
T1 sequence (P20036 29-260): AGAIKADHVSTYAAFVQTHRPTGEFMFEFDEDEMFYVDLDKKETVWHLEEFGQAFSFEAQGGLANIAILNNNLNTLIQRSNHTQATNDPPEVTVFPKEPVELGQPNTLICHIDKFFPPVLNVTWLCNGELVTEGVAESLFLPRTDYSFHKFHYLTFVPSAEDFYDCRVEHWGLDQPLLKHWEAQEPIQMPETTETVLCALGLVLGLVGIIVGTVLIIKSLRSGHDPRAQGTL
T1 sequence (P04440 30-258): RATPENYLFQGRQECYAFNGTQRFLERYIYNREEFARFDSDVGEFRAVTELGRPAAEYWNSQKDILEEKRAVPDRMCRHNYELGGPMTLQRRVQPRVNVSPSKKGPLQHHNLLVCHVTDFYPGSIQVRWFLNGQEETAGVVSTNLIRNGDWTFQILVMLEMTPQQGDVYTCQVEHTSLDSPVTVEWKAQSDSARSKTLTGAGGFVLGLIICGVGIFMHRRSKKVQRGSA

[2] = target: T2, HLA-DP4 molecule DPA1*0103/DPB1*0402 (DP402) (Homo sapiens, UniProt P04440+P20036); test: biochemical; type: binding
T2 construct: purified from various human B lymphocyte lines transformed with the Epstein Barr virus (EBV), which are homozygotes for DP; endogenous in cells
T2 sequence (P20036 29-260): T1 sequence (P20036 29-260)
T2 sequence (P04440 30-258 A65V/A84D/A85E): T1 sequence (P04440 30-258) with A36V, A55D, A56E

Molecule | Loss of binding to DP*0401 (ratio of the IC50 values for the mutant peptide and for the UNK1 peptide) [1] | Loss of binding to DP*0402 (ratio of the IC50 values for the mutant peptide and for the UNK1 peptide) [2] | IC50 ([1]; IC50 (nM) DP0401, Api m1 overlapping peptides, tracer bUNK 1-17 10 nM, pH 5, 24 h)
KYFAAFQFEPLAA [UNK T8F] | 2.7 | 1.7 | –
KYFAATQEEPLAA [UNK F10E] | 1405 | 1190 | –
KYFAATQFEALAA [UNK P12A] | 1.2 | 0.9 | –
KYFAADQFEPLAA [UNK T8D] | 2 | 2.3 | –
KYLAATQFEPLAA [UNK F5L] | 3.6 | 6 | –
KYFAATQFKPLAA [UNK E11K] | 1.3 | 0.7 | –
KYFAATQFEPLKA [UNK A13K] | 1.7 | 1.4 | –
KYFAATQFEPAAA [UNK L13A] | 3.1 | 2.3 | –
KYFAATQFEPRAA [UNK L13R] | 64 | 43 | –
KYFAATAFEPLAA [UNK Q9A] | 0.8 | 0.6 | –
KYYAATQFEPLAA [UNK F5Y] | 3 | 3.9 | –
KYFAAEQFEPLAA [UNK T8E] | 2.7 | 3.7 | –
KYFAATQFAPLAA [UNK E11A] | 0.5 | 0.5 | –
KYNAATQFEPLAA [UNK F5N] | 398 | 76 | –
KYFAANQFEPLAA [UNK T8N] | 4.1 | 4.8 | –
KYFAATQAEPLAA [UNK F10A] | 336 | 62 | –
KYFAASQFEPLAA [UNK T8S] | 2.7 | 3.4 | –
KYFAATQFEPDAA [UNK L13D] | 9.4 | 9 | –
KYFAAAQFEPLAA [UNK T8A] | 0.8 | 0.8 | –
KYFAATQTEPLAA [UNK F10T] | 1171 | 476 | –
CC[C@H](C)[C@H](NC(=O)[C@H](CC(C)C)NC(=O)[C@H](CC(N)=O)NC(=O)[C@H](Cc1ccccc1)NC(=O)[C@H](Cc1ccc(O)cc1)NC(=O)[C@H](CCSC)NC(=O)[C@H](CCCCN)NC(=O)CNC(=O)[C@@H](NC(=O)[C@H](Cc1ccccc1)NC(=O)[C@@H](N)Cc1ccc(O)cc1)C(C)C)C(=O)N[C@@H](CC(=O)O)C(=O)N[C@H](C(=O)N[C@@H](CCCCN)C(=O)N[C@@H](CS)C(=O)N[C@@H](Cc1ccc(O)cc1)C(=O)N[C@@H](CCCCN)C(=O)N[C@@H](CC(C)C)C(=O)O)[C@@H](C)O [81-98] | – | – | 2250 nM
